Measured values published in ChEMBL document CHEMBL5247617, “4-Arylthiosemicarbazide derivatives - Pharmacokinetics, toxicity and anti-Toxoplasma gondii activity in vivo” (Eur J Med Chem, 2022).
The source made the active and inactive calls. The calls are words filed in the database; no cut-off is given here.

Assays:
Toxoplasma gondii [1] = assay: Antiparasitic activity against Toxoplasma gondii RH infected in human Hs27 cells assessed as parasitic growth inhibition incubated for 24 hrs followed by [5,6-3H] uracil addition and measured after 72 hrs by liquid scintillation counter analysis; type: functional, organism-based
L929 = assay: Cytotoxicity against mouse L929 cells assessed as reduction in cell viability incubated for 24 hrs by MTT assay; type: toxicity, cell-based; details: l929, 24 h
HS27 = assay: Cytotoxicity against human HS27 cells assessed as reduction in cell viability; type: toxicity, cell-based
[2] = Toxicity in BALB/c mouse assessed as changes in body weight at 1000 mg/kg, po administered once and observed for 10 days; type: organism-based; details: in vivo, 240 h, time 10 day
[3] = Elimination half-life in BALB/c mouse serum at 50 mg/kg, po measured upto 60 mins by LC-MS/MS analysis; type: ADME, organism-based; details: in vivo, 1 h
[4] = Elimination half-life in BALB/c mouse serum at 25 mg/kg, po measured upto 60 mins by LC-MS/MS analysis; type: ADME, organism-based; details: in vivo, 1 h
[5] = Tmax in BALB/c mouse serum at 50 mg/kg, po measured upto 60 mins by LC-MS/MS analysis; type: ADME, organism-based; details: in vivo, 1 h
[6] = Tmax in BALB/c mouse serum at 25 mg/kg, po measured upto 60 mins by LC-MS/MS analysis; type: ADME, organism-based; details: in vivo, 1 h
[7] = AUC in BALB/c mouse serum at 50 mg/kg, po measured upto 60 mins by LC-MS/MS analysis; type: ADME, organism-based; set-up: time < 60 min, dose 50 mg/kg, route po; details: in vivo, 1 h
[8] = AUC in BALB/c mouse serum at 25 mg/kg, po measured upto 60 mins by LC-MS/MS analysis; type: ADME, organism-based; set-up: dose 25 mg/kg, time < 60 min, route po; details: in vivo, 1 h
[9] = Cmax in BALB/c mouse serum at 50 mg/kg, po measured upto 60 mins by LC-MS/MS analysis; type: ADME, organism-based; set-up: time < 60 min, dose 50 mg/kg, route po; details: in vivo, 1 h
[10] = Cmax in BALB/c mouse serum at 25 mg/kg, po measured upto 60 mins by LC-MS/MS analysis; type: ADME, organism-based; set-up: dose 25 mg/kg, time < 60 min, route po; details: in vivo, 1 h
[11] = Oral bioavailability in BALB/c mouse serum at 50 mg/kg measured upto 60 mins by LC-MS/MS analysis; type: ADME, organism-based
[12] = Oral bioavailability in BALB/c mouse serum at 25 mg/kg measured upto 60 mins by LC-MS/MS analysis; type: ADME, organism-based
[13] = Elimination half-life in BALB/c mouse brain at 50 mg/kg, po measured upto 24 hrs by LC-MS/MS analysis; type: ADME, organism-based; details: read-out: beta t1/2 (converted)
[14] = Elimination half-life in BALB/c mouse brain at 25 mg/kg, po measured upto 24 hrs by LC-MS/MS analysis; type: ADME, organism-based; details: read-out: beta t1/2 (converted)
[15] = Tmax in BALB/c mouse brain at 50 mg/kg, po measured upto 24 hrs by LC-MS/MS analysis; type: ADME, organism-based
[16] = Tmax in BALB/c mouse brain at 25 mg/kg, po measured upto 24 hrs by LC-MS/MS analysis; type: ADME, organism-based
[17] = AUC in BALB/c mouse brain at 50 mg/kg, po measured upto 24 hrs by LC-MS/MS analysis; type: ADME, organism-based; set-up: dose 50 mg/kg, time < 24 hrs, route po
[18] = AUC in BALB/c mouse brain at 25 mg/kg, po measured upto 24 hrs by LC-MS/MS analysis; type: ADME, organism-based; set-up: time < 24 hrs, dose 25 mg/kg, route po
[19] = Cmax in BALB/c mouse brain at 50 mg/kg, po measured upto 24 hrs by LC-MS/MS analysis; type: ADME, organism-based; set-up: time < 24 hrs, dose 50 mg/kg, route po; details: in vivo
[20] = Cmax in BALB/c mouse brain at 25 mg/kg, po measured upto 24 hrs by LC-MS/MS analysis; type: ADME, organism-based; set-up: time < 24 hrs, dose 25 mg/kg, route po; details: in vivo
[21] = Oral bioavailability in BALB/c mouse brain at 50 mg/kg measured upto 24 hrs by LC-MS/MS analysis; type: ADME, organism-based
[22] = Oral bioavailability in BALB/c mouse brain at 25 mg/kg measured upto 24 hrs by LC-MS/MS analysis; type: ADME, organism-based
[23] = Toxicity in BALB/c mouse assessed as changes in body weight at 25 to 50 mg/kg, po administered for 5 days and measured on day 1 and day 14; type: organism-based; details: in vivo, 120 h, dose 25-50 mg/kg, time 5 day
[24] = Toxicity in BALB/c mouse assessed as changes in liver weight at 50 mg/kg, po administered for 5 days and measured after 1 day; type: organism-based; details: in vivo, 120 h, time 5 day
[25] = Toxicity in BALB/c mouse assessed as changes in liver weight at 50 mg/kg, po administered for 5 days and measured after 14 days; type: organism-based; details: in vivo, 120 h, time 5 day
[26] = Toxicity in BALB/c mouse assessed as changes in serum AST level at 50 mg/kg, po administered for 5 days and measured on day 1 and day 14 by ELISA method; type: organism-based; details: in vivo, 120 h, time 5 day
[27] = Toxicity in BALB/c mouse assessed as increase in serum ALT level at 50 mg/kg, po administered for 5 days and measured after 14 days by ELISA method; type: organism-based; details: in vivo, 120 h, time 5 day
[28] = Toxicity in BALB/c mouse assessed as changes in creatinine level at 50 mg/kg, po administered for 5 days and measured on day 1 and day 14 by colorimetric assay; type: organism-based; details: in vivo, 120 h, time 5 day
[29] = Toxicity in BALB/c mouse assessed as disseminated necrosis of hepatocytes at 50 mg/kg, po administered for 5 days and measured after 1 day by hematoxylin-eosin staining based microscopic analysis; type: organism-based; details: in vivo, 120 h, time 5 day
[30] = Toxicity in BALB/c mouse assessed as disseminated necrosis of hepatocytes at 50 mg/kg, po administered for 5 days and measured after 14 days by hematoxylin-eosin staining based microscopic analysis; type: organism-based; details: in vivo, 120 h, time 5 day
[31] = Toxicity in BALB/c mouse assessed as changes in size of hepatocyte nuclei at 50 mg/kg, po administered for 5 days and measured after 14 days by hematoxylin-eosin staining based microscopic analysis; type: organism-based; details: hepatocytes, 120 h, time 5 day
[32] = Toxicity in BALB/c mouse assessed as changes in size of hepatocyte nuclei at 50 mg/kg, po administered for 5 days and measured after 1 day by hematoxylin-eosin staining based microscopic analysis; type: organism-based; details: hepatocytes, 120 h, time 5 day
Toxoplasma gondii [33] = assay: Antiparasitic activity against Toxoplasma gondii RH infected in BALB/c mouse assessed as prolongation of animal survival at 25 to 50 mg/kg, po administered for 5 days starting from 24 hrs post infection by Kaplan-Meier method; type: functional, organism-based; details: dose 25-50 mg/kg, time 5.0 day
Toxoplasma gondii [34] = assay: Antiparasitic activity against Toxoplasma gondii RH infected in BALB/c mouse assessed as survival rate at 50 mg/kg, po administered every 12 hrs for 5 days starting from 24 hrs post infection by Kaplan-Meier method; type: functional; details: 120 h, time 5 day
Toxoplasma gondii [35] = assay: Antiparasitic activity against Toxoplasma gondii RH infected in BALB/c mouse assessed as reduction of daughter tachyzoites in blood at 25 to 50 mg/kg, po administered for 5 days starting from 24 hrs post infection by real-time qPCR analysis; type: functional, organism-based; details: dose 25-50 mg/kg, time 5.0 day
Toxoplasma gondii [36] = assay: Antiparasitic activity against Toxoplasma gondii RH infected in BALB/c mouse assessed as decrease in IFNgamma level in serum at 25 to 50 mg/kg, po administered for 5 days starting from 24 hrs post infection by ELISA method; type: functional, organism-based; details: dose 25-50 mg/kg, time 5.0 day
Toxoplasma gondii [37] = assay: Antiparasitic activity against Toxoplasma gondii RH infected in BALB/c mouse assessed as decrease in number of bradyzoite gene copies in brain at 50 mg/kg, po administered every 24 hrs for 5 days starting from 24 hrs post infection by real-time qPCR analysis; type: functional, organism-based; details: time 5.0 day
Toxoplasma gondii [38] = assay: Antiparasitic activity against Toxoplasma gondii RH infected in BALB/c mouse assessed as reduction of bradyzoite gene copies in heart at 50 mg/kg, po administered every 12 and 24 hrs for 5 days starting from 24 hrs post infection by real-time qPCR analysis; type: functional, organism-based; details: time 5.0 day
Toxoplasma gondii [39] = assay: Antiparasitic activity against Toxoplasma gondii RH infected in BALB/c mouse assessed as reduction in number of bradyzoite gene copies in muscles at 25 mg/kg, po administered every 24 hrs for 5 days starting from 24 hrs post infection by real-time qPCR analysis; type: functional; details: time 5 day
Toxoplasma gondii [40] = assay: Antiparasitic activity against Toxoplasma gondii DX infected in C3H/HeOuJ mouse assessed as prolongation of survival at 25 to 50 mg/kg, po administered for 5 days starting from 24 hrs post infection by Kaplan-Meier method; type: functional, organism-based; details: dose 25-50 mg/kg, time 5.0 day

Cc1nc[nH]c1C(=O)NNC(=S)Nc1cccc(I)c1
IC50 (Toxoplasma gondii [1]): 25.7 µM
CC30 (L929): 213.27 µM
CC30 (HS27): 209.45 µM
Activity [2]: Non-Toxic
beta t1/2 [3]: 23.4 min
beta t1/2 [4]: 24.6 min
Tmax [5]: 15 min
Tmax [6]: 15 min
AUC [7]: 170390 ng·h/mL
AUC [8]: 150550 ng·h/mL
Cmax [9]: 35320 ng/mL
Cmax [10]: 30850 ng/mL
bioavailability [11]: 17%
bioavailability [12]: 30.1%
half-life [13]: 45.6 min
half-life [14]: 29.4 min
Tmax [15]: 30 min
Tmax [16]: 15 min
AUC at 24 h [17]: 167 ng·h/mL
AUC at 24 h [18]: 69.9 ng·h/mL
Cmax [19]: 174.33 ng/mg
Cmax [20]: 94.16 ng/mg
bioavailability [21]: 0.98%
bioavailability [22]: 0.46%
Activity [23]: Non-Toxic
Activity [24]: Non-Toxic
Activity [25]: Non-Toxic
Activity [26]: Non-Toxic
Activity [27]: Toxic
Activity [28]: Non-Toxic
Activity [29]: Toxic
Activity [30]: Toxic
Activity [31]: Toxic
Activity [32]: Toxic
Activity (Toxoplasma gondii [33]): Active
survival at 50 mg/kg (Toxoplasma gondii [34]): 20%
Activity (Toxoplasma gondii [35]): Active
Activity (Toxoplasma gondii [36]): Active
Activity (Toxoplasma gondii [37]): Active
Activity (Toxoplasma gondii [38]): Active
Activity (Toxoplasma gondii [39]): 16
Activity (Toxoplasma gondii [40]): Active
